Source: US6503945B2, “Cationic amphiphiles containing N-hydroxyalkyl group for intracellular delivery of biologically active molecules” (Council of Scientific & Industrial Research, priority 1909, dated 2003)

Tested on: COS-1 cells
Test: Cell transfection assay (β-galactosidase reporter gene activity)
Format: cell-based, African green monkey
Conditions: compared to Lipofectamine
Protocol: Separate 1 mole (80 l of a 0.0126 M stock solution in chloroform) of N,N-di-n-hexadecyl-N,N-dihydroxyethylammonium bromide (DHDEAB) and 1 mole of the neutral colipid cholesterol (40 l of a 0.0255 M stock solution in chloroform) were combined in a glass vial. The solvent was evaporated initially by a thin flow of moisture free nitrogen and then under high flow for two minutes and then further dried under vacuum (1 mm Hg) for 6 hours.
The dried lipid film was then hydrated with sterile deionized water (1 ml) overnight (9-10 hours) in room temperature to produce a dispersed suspension. The hydrated mixture was then vortexed for 1 minute and was sonicated in a probe sonicator at a constant 25 W sonic power for 5 minutes. The concentrations of both DHDEAB and cholesterol in the resulting solution obtained after sonication was 1 mM. […]
For protein estimation, the resultant medium was removed from the plates and the cells were washed with PBS- Lysis buffer (1001 containing 250 mM Tris.HCl, pH 8.0, 0.5% NP40) was added and the cells were lysed for 30 minutes. […] The plates were read in an Elisa reader (Molecular Devices, Vmax) with a 650 nm filter. […]
The level of galactosidase activity in a 501 lysate was measured by adding to 501 of 2× gal mixture containing 1.33 mg/ml o-nitrophenyl--D-galactopyranoside (Sigma N1127), 200 mM sodium phosphate pH 7.15 and […]. […]

Compound	in vitro transfection efficiencies
CCCCCCCCCCCCCCCC[N+](CCO)(CCO)CCCCCCCCCCCCCCCC [amphiphile No. 1, N,N-di-n-hexadecyl-N, N-dihydroxyethylammonium bromide]	enhanced
N,N,-di[O-hexadecanoyl]hydroxyethyl-N-hydroxyethyl-N-methylammonium bromide [amphiphile No. 5]	enhanced
